Measured values reported in US20130273176A1, “METHODS AND COMPOSITIONS USEFUL FOR PROMOTING SLEEP IN ANIMALS” (Nestec SA, priority 2010, published 2013).

How the values were obtained:
senior dogs [1] = experiment: Actiware sleep analysis, Example 2 (melatonin only, cross-over, AM or PM); type: in vivo, dog; details: for Nap Duration / Total Daytime Naps / Total Daytime Sleep Minutes / Total Night-Time Awakenings / Total Night-Time Wake Minutes: melatonin only, mean +/- std error
Protocol: Using a cross-over design, all animals were administered a control placebo and a treatment supplement containing melatonin. The animals were senior animals, dogs greater than 10 years of age. There were 4 males and 4 females in each group. For the intervention phases (phases 2 and 4), all animals were administered melatonin in the AM or PM. During the control and cross-over phases (phase 1 and 3, respectively) the animals were administered a placebo comprising methylcellulose contained in a gel capsule in the AM or PM, as appropriate.
Each phase lasted 35 days. Starting on day 29 of each phase, the animals locomotor behavioral activity was monitored for 4 consecutive days.
The placebo consisted of the carrier (methylcellulose) contained in a gel capsule and was provided during the control phases (Phases 1 and 3) either with the AM or PM feeding, as appropriate to complement the supplement time (luring the following intervention phase. For example, placebo in AM during phase 1, then supplement in AM during phase 2.
For phase 2, the first supplement treatment phase, the animals were given supplements of melatonin. Further, for half of the animals, the supplements were in the morning with the AM feeding and half were given in the evening with the PM feeding. Thus, of the 4 males, 2 were administered the melatonin in the morning and two in the evening.
During phase 3, the second control phase, delivery of the methylcellulose in a gel capsule was provided either with the AM or PM feeding, as appropriate to cross-over the treatment from phase 1-2.
For phase 4, the second supplement treatment phase, the procedure was exactly the same as phase 2, except that for a given animal the supplementation time was switched from phase 2. Thus, if male was administered melatonin in the morning with the AM feeding in phase 2, the male was administered melatonin in the evening with the PM feeding in phase 4.
Data analysis of periods indicated no period effect. Therefore, all control data were compiled into a single dataset, as well as all treatment data for each supplement time (AM or PM). Statistical analysis was based on AM control vs. AM treatment, and PM control vs. PM Treatment.
Twenty-four hour activity rhythms were assessed for 5 consecutive days and 5 nights for Example 1 or 3 consecutive days and 4 nights for Example 2 using the Actiwatch method (Mini-Mitter® Actiwatch-16® activity monitoring system, Respironics Co. Inc., Bend, Oreg.). The Actiwatch® was placed inside a specially designed animal case and attached to a collar around the dog's neck. The dogs were allowed to follow their usual patterns of activity, test, exercise, and feeding.
The Actiware® software was used to generate total daily, light phase (12-h daytime: 7 am-7 pm), and dark phase (12-h night-time: 7 PM-7 AM) total sleep or wake minutes. Light phase naps represent sleep bouts occurring during the 12-h light phase interval. Dark phase wake bouts relied awake activity during the night-time sleep interval and not the 12-h dark phase interval. Total number of bouts and bout duration were determined for both light phase naps and dark phase awakenings.
The total number of sleep minutes recorded during the daytime phase of Example 2 was used to calculate the number of nap bouts and average nap duration during this same period.

senior dogs [2] = experiment: Actiwatch activity recording, Example 2 (melatonin only, cross-over, AM or PM); type: in vivo, dog; details: for Total Daytime Activity Counts: melatonin only, mean +/- std error
Protocol: Using a cross-over design, all animals were administered a control placebo and a treatment supplement containing melatonin. The animals were senior animals, dogs greater than 10 years of age. There were 4 males and 4 females in each group. For the intervention phases (phases 2 and 4), all animals were administered melatonin in the AM or PM. During the control and cross-over phases (phase 1 and 3, respectively) the animals were administered a placebo comprising methylcellulose contained in a gel capsule in the AM or PM, as appropriate. Each phase lasted 35 days. Starting on day 29 of each phase, the animals locomotor behavioral activity was monitored for 4 consecutive days. The placebo consisted of the carrier (methylcellulose) contained in a gel capsule and was provided during the control phases (Phases 1 and 3) either with the AM or PM feeding, as appropriate to complement the supplement time (luring the following intervention phase. For example, placebo in AM during phase 1, then supplement in AM during phase 2. For phase 2, the first supplement treatment phase, the animals were given supplements of melatonin. Further, for half of the animals, the supplements were in the morning with the AM feeding and half were given in the evening with the PM feeding. Thus, of the 4 males, 2 were administered the melatonin in the morning and two in the evening. During phase 3, the second control phase, delivery of the methylcellulose in a gel capsule was provided either with the AM or PM feeding, as appropriate to cross-over the treatment from phase 1-2. For phase 4, the second supplement treatment phase, the procedure was exactly the same as phase 2, except that for a given animal the supplementation time was switched from phase 2. Thus, if male was administered melatonin in the morning with the AM feeding in phase 2, the male was administered melatonin in the evening with the PM feeding in phase 4. Data analysis of periods indicated no period effect. Therefore, all control data were compiled into a single dataset, as well as all treatment data for each supplement time (AM or PM). Statistical analysis was based on AM control vs. AM treatment, and PM control vs. PM Treatment. Twenty-four hour activity rhythms were assessed for 5 consecutive days and 5 nights for Example 1 or 3 consecutive days and 4 nights for Example 2 using the Actiwatch method (Mini-Mitter® Actiwatch-16® activity monitoring system, Respironics Co. Inc., Bend, Oreg.). The Actiwatch® was placed inside a specially designed animal case and attached to a collar around the dog's neck. The dogs were allowed to follow their usual patterns of activity, test, exercise, and feeding. Daytime activity was recorded to represent the 12 hour light phase from 7 am to 7 pm. […]

With `COc1ccc2[nH]cc(CCNC(C)=O)c2c1` [Melatonin Only, melatonin] the “Nap Duration” value (senior dogs [1]; AM Supplement) was 4.2 +/− 0.7, the “Total Daytime Naps” value (senior dogs [1]; AM Supplement) was 58.3 +/− 3.5 and the “Total Daytime Sleep Minutes” value (senior dogs [1]; AM Supplement) was 240 ± 32 min. The “Total Night-Time Awakenings” value (senior dogs [1]; AM Supplement) was 69.5 +/− 6.9, the “Total Night-Time Wake Minutes” value (senior dogs [1]; AM Supplement) was 198 ± 35 min and the “Nap Duration” value (senior dogs [1]; PM Supplement) was 6.4 +/− 1.2. The “Total Daytime Naps” value (senior dogs [1]; PM Supplement) was 45.5 +/− 4.7, the “Total Daytime Sleep Minutes” value (senior dogs [1]; PM Supplement) was 264 ± 28 min and the “Total Night-Time Awakenings” value (senior dogs [1]; PM Supplement) was 52.6 +/− 5.7. For the same compound, the “Total Night-Time Wake Minutes” value (senior dogs [1]; PM Supplement) was 209 ± 37 min, the “increase in total daytime sleep minutes compared to dogs on the control food” value (senior dogs [1]; PM, melatonin 1 mg/kg BW, 35 days, not statistically significant (p=0.25)) was 21% and the “decrease in total number of awakenings during the sleep phase compared to the control group” value (senior dogs [1]; melatonin alone with the PM meal) was 22%. For the same compound, the “decrease in average nap length compared to control group” value (senior dogs [1]; melatonin with the AM meal) was 31%, the “increase in the number of awakenings compared to control group” value (senior dogs [1]; melatonin with the AM meal) was 16.6% and the “increase in the number of naps compared to control group” value (senior dogs [1]; melatonin with the AM meal) was 10%. For the same compound, the “increase in night-time wake minutes compared to control group” value (senior dogs [1]; melatonin with the AM meal, not different from control data) was 41%, the “total number of naps during the 12 hour daytime phase compared to the control group” value (senior dogs [1]; melatonin with the PM meal) was “did not change at all” and the “increase in average nap duration compared to the control group” value (senior dogs [1]; melatonin with the PM meal, 12 hour daytime phase) was 18.5%. The “decrease in total night-time wake minutes compared to the control group” value (senior dogs [1]; melatonin with the PM meal, not statistically significant) was 18.6%, the “Total Daytime Activity Counts” value (senior dogs [2]; AM Supplement) was 115,705 +/− 23,249 and the “Total Daytime Activity Counts” value (senior dogs [2]; PM Supplement, 1 mg/kg BW, 35 days) was 114,816 +/− 34,282. For the same compound, the “reduction in total daytime activity counts compared to dogs on the control food” value (senior dogs [2]; PM, melatonin 1 mg/kg BW, 35 days, not statistically significant) was 16% and the “daytime activity effect versus placebo group” value (senior dogs [2]; melatonin supplemented in the AM) was “not significantly different from the placebo group”.
